Measured values from patent US20250353835A1, “N-TETRAZOLYL ARYL UREA-BASED DERIVATIVES, PREPARATION METHOD THEREFOR, AND USE THEREOF” (Hangzhou Yirui Pharmaceutical Technology Co., Ltd, priority 2022, published 2025).
Like-named read-outs stand apart in the source and are kept apart here.

Key:
[1] = Pharmacokinetics in vivo in rats; set-up: species or system SD rats; conditions: for clearance / half-life / Vd / AUC / Cmax / bioavailability: SD, rat, plasma; for Vd: read-out: Apparent volume of distribution (Vss); for AUC: read-out: Area under the curve of plasma concentration-time (AUC); for Cmax: read-out: Peak concentration (Cmax)
Experimental: 1. […] At different time points after administration, blood samples were collected into EDTA blood sample collection tubes. Plasma was separated by centrifugation and stored at −20° C. for the analysis afterwards.
2. Handling of blood samples and LC-MS/MS analysis: the standard curve and formulation and processing of quality control sample: The compound stock solution was diluted with 50% methanol in water to form a standard curve working solution containing each compound at a concentration of 40-20000 ng/mL and a quality control working solution of 120, 1200, and 16000 ng/mL. 47.5 μL of blank rat plasma were respectively taken, and added into 2.50 μL of standard curve working solution or the quality control working solution, to formulate the standard curve samples containing the compound at a concentration of 2.00-1000.00 ng/mL and the quality control samples having a concentration of […] and 800.00 ng/mL. 400 μL of acetonitrile (containing 5 ng/mL of verapamil as an internal standard) was added respectively. The samples were vortexed for 3 min, centrifuged at 20000 rcf, 4° C. for 15 min. The supernatant was taken for LC-MS/MS analysis.
3. Treatment of the compound blood samples: 5 μL of plasma sample was taken, to which 95 μL of blank rat plasma was added, and 800 μL of acetonitrile (containing 5 ng/mL of verapamil as an internal standard) was added. The samples were vortexed for 3 min, centrifuged at 15000 rcf, 4° C. for 10 min. The supernatant was taken for LC-MS/MS analysis (chromatographic column: ACQUITY UPLC® BEH C18 2.1×50 mm 1.7 μm; mobile phase A: 0.1% formic acid in water; mobile phase B: acetonitrile; flow rate: […]).
4. Analysis of the results: pharmacokinetic parameters were fit and calculated by WinNonlin software using statistical […] method, mainly including kinetic parameters Tmax, t1/2, Cmax, AUC0-t, AUC0∞, Cl, Vd, F, etc. The pharmacokinetic data were calculated and processed using Microsoft Excel, such as mean and standard deviation.

[2] = Intraocular and retinal drug concentration in rats after eye drops (HPLC); type: in vivo; conditions: both sexes, SD, rat, topical, 10 μL of 2% solution per eye, twice a day for 7 days, 2% eye drops twice a day; for concentration at 1 h after the second eye drop on Day 7: 1 h after administration
Source text: 2.1 Experimental aminals: SPF grade male SD rats, weighed 180-200 g, were used and adaptively fed for one week.
2.2 Drugs and reagents: Compound 71 and Compound 8; sodium chloride injection (Guangxi Yuyuan Pharmaceutical Co., Ltd.); sterile filter having 0.22 μm pore size (Millex).
2.3 Experimental animal grouping: the animals were randomly divided into 3 groups (6 rats per group) of a negative control group (normal saline), a Compound 71 group and a Compound 8 group.
2.4 Administration method and sampling: 2% Compound (10 μl) dissolved in normal saline (after filtration) was dropped into the surface of each rat's eye with a pipette for 10 s. The eye drop was applied twice a day for a total of 7 days. Samples were taken at 1 and 16 hours after the second administration on Day 7 of administration to determine the ocular distribution concentration of the drug.
(§1) The first batch of samples: 1 hour after the second eye drop on Day 7: 3 rats (2 males and 1 female) were taken from each group. The bulbus oculi were removed, and were thoroughly rinsed for 3 times with normal saline using a pipette. The washing solution was quickly dried with a qualitative filter paper. The cornea, vitreous body and retina were separated under a stereomicroscope, and frozen at −80° C. for subsequent measurement.
as §1, with “second” for “first”, “On the morning of Day 8, i.e., at 16 hours” for “1 hour”, “7: the remaining” for “7:”, “(1 male” for “(2 males”, “2 females)” for “1 female)”, “detection.” for “measurement.”
2.7.3 Results of HPLC measurement of drug content in eye tissue: Under the selected chromatographic conditions for analysis, drug impurities were well separated. The chromatograms for a sample of standard solution, a sample of blank homogenate, a sample of blank homogenate added with Compound 71 or Compound 8, and a sample of retinal homogenate samples were compared. […] Under the selected HPLC measurement conditions, the average recovery rates for two compounds under test were both above 90%. […] The precision can meet the measurement standard. As shown by the accuracy results, the accuracy for all of the high, medium and low concentration retinal spiked quality control samples (QC) within the drug curve range was higher than 95%.

[3] = tested on: rat model of acute lung injury; assay: Rat model of LPS-induced acute lung injury; type: in vivo, Wistar rats; set-up: IL-6 (serum) / IL-6 (homogenate of lung tissue) / IL-6 (bronchoalveolar lavage fluid) / TNF-α (serum) / TNF-α (homogenate of lung tissue) / TNF-α (bronchoalveolar lavage fluid): unit not given here; conditions: ELISA; for expression levels of IL-6 and TNF-α (in words): rat model of acute lung injury; for IL-6 (bronchoalveolar lavage fluid) / IL-6 (homogenate of lung tissue) / IL-6 (serum) / TNF-α (bronchoalveolar lavage fluid) / TNF-α (homogenate of lung tissue) / TNF-α (serum): test drug 30 mg/kg i.p. 2 h before and 1 h after LPS, 12 h after modeling
Experimental: 1. Experimental aminals: SPF-grade male Wistar rats, weighed 180-220 g, 6-8 weeks old.
3. Establishment of animal model: The rats were adaptively fed for one week. After the animals were anesthetized, 3 mg/kg LPS (B8) was injected intratracheally to prepare the rat model of acute lung injury.
4. […] At 2 hours before modeling (before tracheal injection of LPS), the test drug (30 mg/kg, the vehicle was 0.3% DMSO in saline) was intraperitoneally injected. At 1 hour after modeling, the test drug was administered once again (at the same dose). At 12 hours after modeling, the animals were sacrificed, and the samples were collected for the tests of various indexes. […]
5.2 ELISA method: 5 rats per group. The serum, alveolar lavage fluid, and tissue homogenate of one lung of each of the rats were subjected to ELISA assay to determine the TNF-α and IL-6 levels.

[4] = 3 mg/kg oral administration in rats (Table 2A)
[5] = 3 mg/kg intravenous injection in rats
[6] = cornea, read-out: Content of test compound in Cornea
[7] = cornea, 16 h after administration, read-out: Content of test compound in Cornea
[8] = retina, read-out: Content of test compound in Retina
[9] = retina, 16 h after administration, read-out: Content of test compound in Retina
[10] = vitreous body, read-out: Content of test compound in Vitreous body
[11] = vitreous body, 16 hours after administration, read-out: Content of test compound in Vitreous body

Peak time [1, 4] [h] | clearance [1, 5] [mL/min/kg] | half-life [1, 5] [h] | Vd [1, 5] [L/kg] | AUC [1, 5] [ng·h/mL] | Cmax [1, 5] [ng/mL] | bioavailability [1, 4] [%] | half-life [1, 4] [h] | AUC [1, 4] [ng·h/mL] | Cmax [1, 4] [ng/mL] | concentration at 1 h after the second eye drop on Day 7 [2, 6] [ng/g] | concentration at 16 h after the second eye drop on Day 7 [2, 7] [ng/g] | concentration at 1 h after the second eye drop on Day 7 [2, 8] [ng/g] | concentration at 16 h after the second eye drop on Day 7 [2, 9] [ng/g] | concentration at 1 h after the second eye drop on Day 7 [2, 10] [ng/g] | concentration at 16 h after the second eye drop on Day 7 [2, 11] [ng/g] | SMILES | expression levels of IL-6 and TNF-α (in words) [3] | IL-6 (bronchoalveolar lavage fluid) [3] | IL-6 (homogenate of lung tissue) [3] | IL-6 (serum) [3] | further results
2.72 | 2.42 | 0.93 | 0.156 | 20700 | 37500 | 3.6 | 3.63 | 7480 | 914 | 93100 ± 16900 | 43500 ± 6590 | 64800 ± 18300 | 6070 ± 3060 | 24200 ± 7070 | 12700 ± 3490 | CCOc1ccc(-c2ccc(NC(=O)N[C@H]3CC[C@H](C)CC3)cc2-c2nn[nH]n2)cn1 [Compound 71, 1-(4-(6-ethoxypyrid-3-yl)-3-(2H-tetrazol-5-yl)phenyl)-3-((trans)-4-methylcyclohexyl)urea] | effectively reduce | 184.29 ± 75.57 | 236.26 ± 84.91 | 473.14 ± 134.88 | TNF-α (bronchoalveolar lavage fluid) [3]: 25.73 ± 11.35; TNF-α (homogenate of lung tissue) [3]: 37.03 ± 10.88; TNF-α (serum) [3]: 101.63 ± 37.40
0.78 | 9.87 | 0.56 | 0.328 | 5090 | 16400 | 6.1 | 3.37 | 3130 | 1390 | 101000 ± 28200 | 40700 ± 18800 | 55000 ± 6910 | 15800 ± 8410 | 18200 ± 4650 | 10100 ± 2670 | CCOc1ccc(-c2c(F)cc(NC(=O)N3CCC(C(C)(C)C)CC3)cc2-c2nn[nH]n2)cn1 [Compound 8, 4-(tert-butyl)-N-(4-(6-ethoxypyrid-3-yl)-3-fluoro-5-(2H-tetrazol-5-yl)phenyl)piperidine-1-carboxamide] | effectively reduce | 171.55 ± 81.93 | 250.10 ± 70.26 | 470.76 ± 151.60 | TNF-α (bronchoalveolar lavage fluid) [3]: 26.72 ± 10.35; TNF-α (homogenate of lung tissue) [3]: 35.74 ± 11.82; TNF-α (serum) [3]: 94.89 ± 28.07
